Test results published in patent US20200308170A1, “KRAS G12C INHIBITORS” (Mirati Therapeutics, Inc., priority 2017, published 2020).

These compounds were tested against KRas G12C (Homo sapiens, UniProt P01116, G12C) (assay: Inhibition of KRas G12C in NCI-H358 cells measured by phosphorylated ERK (Phospho-ERK)). Conditions: 3 hours, 4 parameter fit, read-out: IC50 (pERK(Thr202/Tyr204) signal normalized with GAPDH).
Format: cell-based
Description: Cells were plated in poly-D-Lysine coated 96-well plates at a concentration of 50,000 cells/well and allowed to attach for 8-12 hours. Diluted compounds were then added at a final concentration of 0.5% DMSO. After 3 hours, the medium was removed, 150 μL of 4% formaldehyde was added and the plates were incubated for 20 minutes. The plates were washed with PBS, and permeabilized using 150 μL of ice cold 100% methanol for 10 minutes. Non-specific antibody binding to the plates was blocked using 100 μL Licor Blocking Buffer (Li-Cor Biotechnology, Lincoln Nebr.) for 1 hour at room temperature. Positive control samples and samples lacking cells were parallel processed with test samples as standards.
The amount Phospho-ERK was determined using an antibody specific for the phosphorylated form of ERK and compared to the amount of GAPDH. […] The plates were incubated for 2 hours at room temperature. The plates were washed with PBS+0.05% Tween 20.
Secondary antibodies used to visualize primary antibodies were added as follows: Anti-rabbit-680 diluted 1:1000 and Anti-mouse-800 diluted 1:1000 in Licor Block+0.05% Tween 20 and incubated for 1 hour at room temperature. The plates were washed with PBS+0.05% Tween 20. A 100 μL aliquot of PBS was added to each well and the plates were read on a LICOR AERIUS plate reader.
The pERK(Thr202/Tyr204) signal was normalized with the GAPDH signal and percent of DMSO control values were calculated. IC50 values were generated using a 4 parameter fit of the dose response curve.

Sequence of KRas G12C (P01116 1-188 isoform P01116-2 G12C): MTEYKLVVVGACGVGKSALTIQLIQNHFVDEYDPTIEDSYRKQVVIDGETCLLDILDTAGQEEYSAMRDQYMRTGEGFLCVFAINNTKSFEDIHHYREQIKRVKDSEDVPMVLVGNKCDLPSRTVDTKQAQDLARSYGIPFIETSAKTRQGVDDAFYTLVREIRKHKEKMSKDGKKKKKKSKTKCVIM

IC50 [µM]	Structure (SMILES)
0.0001 to 1	C=C(F)C(=O)N1CCN(c2nc(OC[C@@H]3C[C@@H](OC)CN3C)nc3c2CCN(c2cccc4ccc(F)c(Cl)c24)C3)C[C@@H]1CC#N [Example 170]
0.0001 to 1	C=C(F)C(=O)N1CCN(c2nc(OC[C@@H]3CCCN3C)nc3c2CCN(c2cccc4c2CCC4)C3)C[C@@H]1CC#N [Example 135]
0.0001 to 1	C=C(F)C(=O)N1CCN(c2nc(OC[C@@H]3CC(F)(F)CN3)nc3c2CCN(c2cccc4ccc(F)c(Cl)c24)C3)C[C@@H]1CC#N [Example 208, 2-((S)-4-(7-(8-chloro-7-fluoronaphthalen-1-yl)-2-(((S)-4,4-difluoropyrrolidin-2-yl)methoxy)-5,6,7,8-tetrahydropyrido[3,4-d]pyrimidin-4-yl)-1-(2-fluoroacryloyl)piperazin-2-yl)acetonitrile]
0.0001 to 1	C=C(F)C(=O)N1CCN(c2nc(OCCN3CCCCCC3)nc3c2CCN(c2cccc4ccc(F)c(Cl)c24)C3)C[C@@H]1CC#N [Example 165]
0.0001 to 1	C=C(F)C(=O)N1CCN(c2nc(OCC3CCN3C(C)C)nc3c2CCN(c2cccc4ccc(F)c(Cl)c24)C3)C[C@@H]1CC#N (some centres unmarked) [Example 178]
0.0001 to 1	C=C(F)C(=O)N1CCN(c2nc(OCC34CC(N(C)C)(C3)C4)nc3c2CCN(c2cccc4ccc(F)c(Cl)c24)C3)C[C@@H]1CC#N [Example 188]
0.0001 to 1	C=C(F)C(=O)N1CCN(c2nc(OCC34COCN3COC4)nc3c2CCN(c2cccc4ccc(F)c(Cl)c24)C3)C[C@@H]1CC#N [Example 155]
0.0001 to 1	C=C(F)C(=O)N1CCN(c2nc(OCC3CCC(C)(C)N3C)nc3c2CCN(c2cccc4ccc(F)c(Cl)c24)C3)C[C@@H]1CC#N (some centres unmarked) [Example 199]
1 to 10	C=C(F)C(=O)N1CCN(c2nc(OCCn3ccnc3)nc3c2CCN(c2cccc4ccc(F)c(Cl)c24)C3)C[C@@H]1CC#N [Example 163]
0.0001 to 1	C=C(F)C(=O)N1CCN(c2nc(OCC3CCN3C(C)(C)C)nc3c2CCN(c2cccc4cccc(C)c24)C3)C[C@@H]1CC#N (stereo partly drawn) [Example 74, 2-((2S)-4-(2-((1-(tert-butyl)azetidin-2-yl)methoxy)-7-(8-methylnaphthalen-1-yl)-5,6,7,8-tetrahydropyrido[3,4-d]pyrimidin-4-yl)-1-(2-fluoroacryloyl)piperazin-2-yl)acetonitrile]
0.0001 to 1	C=C(F)C(=O)N1CCN(c2nc(OC[C@@H]3CCCN3C(C)C)nc3c2CCN(c2cccc4ccc(F)c(Cl)c24)C3)C[C@@H]1CC#N [Example 147, 2-((S)-4-(7-(8-chloro-7-fluoronaphthalen-1-yl)-2-(((S)-1-isopropylpyrrolidin-2-yl)methoxy)-5,6,7,8-tetrahydropyrido[3,4-d]pyrimidin-4-yl)-1-(2-fluoroacryloyl)piperazin-2-yl)acetonitrile]
0.0001 to 1	C=C(F)C(=O)N1CCN(c2nc(OC[C@@H]3C[C@@H](F)CN3C(C)C)nc3c2CCN(c2cccc4ccc(F)c(Cl)c24)C3)C[C@@H]1CC#N [Example 183]
0.0001 to 1	C=C(F)C(=O)N1CCN(c2nc(OCC34CCCCN3CCC4)nc3c2CCN(c2cccc4ccc(F)c(Cl)c24)C3)C[C@@H]1CC#N (some centres unmarked) [Example 151]
0.0001 to 1	C=C(F)C(=O)N1CCN(c2nc(OCC34CCCN3CCC4)nc3c2CCN(c2cccc(Cl)c2C(F)(F)F)C3)C[C@@H]1CC#N [Example 141]
0.0001 to 1	C=C(F)C(=O)N1CCN(c2nc(OCC34CCCN3C(C)CC4)nc3c2CCN(c2cccc4ccc(F)c(Cl)c24)C3)C[C@@H]1CC#N (some centres unmarked) [Example 186]
0.0001 to 1	C=C(F)C(=O)N1CCN(c2nc(OCC(C)N3CCOCC3)nc3c2CCN(c2cccc4ccc(F)c(Cl)c24)C3)C[C@@H]1CC#N (some centres unmarked) [Example 177]
0.0001 to 1	C=C(F)C(=O)N1CCN(c2nc(OC[C@@H]3CC(F)(F)CN3C)nc3c2CCN(c2cccc4ccc(F)c(Cl)c24)C3)C[C@@H]1CC#N [Example 169]
0.0001 to 1	C=C(F)C(=O)N1CCN(c2nc(OCC3CN(C)CCC34CN(C)C4)nc3c2CCN(c2cccc4ccc(F)c(Cl)c24)C3)C[C@@H]1CC#N (some centres unmarked) [Example 162]
0.0001 to 1	C=C(F)C(=O)N1CCN(c2nc(OCC34CCCN3CCC4)nc3c2CCN(c2cccc(F)c2C(F)(F)F)C3)C[C@@H]1CC#N [Example 140]
0.0001 to 1	C=C(F)C(=O)N1CCN(c2nc(OCC3COCCC34CN(C)C4)nc3c2CCN(c2cccc4ccc(F)c(Cl)c24)C3)C[C@@H]1CC#N (some centres unmarked) [Example 161]
1 to 10	C=C(F)C(=O)N1CCN(c2nc(OCC34CCCN3C(=O)CC4)nc3c2CCN(c2cccc4ccc(F)c(Cl)c24)C3)C[C@@H]1CC#N (some centres unmarked) [Example 145]

IC50 [µM]	Structure (SMILES)
1 to 10	C=C(F)C(=O)N1CCN(c2nc(OC3CCCN(C(C)C)C3)nc3c2CCN(c2cccc4ccc(F)c(Cl)c24)C3)C[C@@H]1CC#N (some centres unmarked) [Example 152]
0.0001 to 1	C=C(F)C(=O)N1CCN(c2nc(OCC(C)N3CCCCC3)nc3c2CCN(c2cccc4ccc(F)c(Cl)c24)C3)C[C@@H]1CC#N (some centres unmarked) [Example 158]
0.0001 to 1	C=C(F)C(=O)N1CCN(c2nc(OC[C@@H]3CCCN3CC)nc3c2CCN(c2cccc4ccc(F)c(Cl)c24)C3)C[C@@H]1CC#N [Example 185]
1 to 10	C=C(F)C(=O)N1CCN(c2nc(O[C@H]3CCC[C@@H]3N(C)C)nc3c2CCN(c2cccc4ccc(F)c(Cl)c24)C3)C[C@@H]1CC#N [Example 153]
1 to 10	C=C(F)C(=O)N1CCN(c2nc(OC3CN(C)C3)nc3c2CCN(c2cccc4ccc(F)c(Cl)c24)C3)C[C@@H]1CC#N [Example 168]
1 to 10	C=C(F)C(=O)N1CCN(c2nc(OC3CC4(C3)CN(C)C4)nc3c2CCN(c2cccc4ccc(F)c(Cl)c24)C3)C[C@@H]1CC#N [Example 149]
0.0001 to 1	C=C(F)C(=O)N1CCN(c2nc(OC[C@@H]3C[C@@H](OC)CN3C(C)C)nc3c2CCN(c2cccc4ccc(F)c(Cl)c24)C3)C[C@@H]1CC#N [Example 181]
0.0001 to 1	C=C(F)C(=O)N1CCN(c2nc(OCCNCC(F)F)nc3c2CCN(c2cccc4ccc(F)c(Cl)c24)C3)C[C@@H]1CC#N [Example 211, (S)-2-(4-(7-(8-chloro-7-fluoronaphthalen-1-yl)-2-(2-((2,2-difluoroethyl)amino)ethoxy)-5,6,7,8-tetrahydropyrido[3,4-d]pyrimidin-4-yl)-1-(2-fluoroacryloyl)piperazin-2-yl)acetonitrile]
0.0001 to 1	C=C(F)C(=O)N1CCN(c2nc(OCCCN3C[C@@H]4C[C@H]3CO4)nc3c2CCN(c2cccc4ccc(F)c(Cl)c24)C3)C[C@@H]1CC#N [Example 198]
0.0001 to 1	C=C(F)C(=O)N1CCN(c2nc(OC[C@@H]3CCCN3C3CCC3)nc3c2CCN(c2cccc4ccc(F)c(Cl)c24)C3)C[C@@H]1CC#N [Example 196]
1 to 10	C=C(F)C(=O)N1CCN(c2nc(OC3CN4CCC3CC4)nc3c2CCN(c2cccc4ccc(F)c(Cl)c24)C3)C[C@@H]1CC#N (some centres unmarked) [Example 154]
1 to 10	C=C(F)C(=O)N1CCN(c2nc(OCC(C)C(F)F)nc3c2CCN(c2cccc4ccc(F)c(Cl)c24)C3)C[C@@H]1CC#N (some centres unmarked) [Example 192]
0.0001 to 1	C=C(F)C(=O)N1CCN(c2nc(OCC34CCC(CC3)CN4C)nc3c2CCN(c2cccc4ccc(F)c(Cl)c24)C3)C[C@@H]1CC#N [Example 166]
0.0001 to 1	N#CC[C@H]1CN(c2nc(OCC34CCCN3CCC4)nc3c2CCN(c2cccc4ccc(F)c(Cl)c24)C3)CCN1C(=O)/C(F)=C/CF [Example 207, (S, Z)-2-(4-(7-(8-chloro-7-fluoronaphthalen-1-yl)-2-((tetrahydro-1H-pyrrolizin-7a(5H)-yl)methoxy)-5,6,7,8-tetrahydropyrido[3,4-d]pyrimidin-4-yl)-1-(2,4-difluorobut-2-enoyl)piperazin-2-yl)acetonitrile]
0.0001 to 1	C=C(F)C(=O)N1CCN(c2nc(OCC3(C)CCCN3C)nc3c2CCN(c2cccc4ccc(F)c(Cl)c24)C3)C[C@@H]1CC#N (stereo partly drawn) [Example 139, 2-((2S)-4-(7-(8-chloro-7-fluoronaphthalen-1-yl)-2-((1,2-dimethylpyrrolidin-2-yl)methoxy)-5,6,7,8-tetrahydropyrido[3,4-d]pyrimidin-4-yl)-1-(2-fluoroacryloyl)piperazin-2-yl)acetonitrile]
1 to 10	C=C(F)C(=O)N1CCN(c2nc(OC3CN(CCC#N)C3)nc3c2CCN(c2cccc4ccc(F)c(Cl)c24)C3)C[C@@H]1CC#N [Example 157]
1 to 10	C=C(F)C(=O)N1CCN(c2nc(O[C@@H]3CCCC[C@H]3N(C)C)nc3c2CCN(c2cccc4ccc(F)c(Cl)c24)C3)C[C@@H]1CC#N [Example 182]
1 to 10	C=C(F)C(=O)N1CCN(c2nc(OCC3CCOC3)nc3c2CCN(c2cccc4ccc(F)c(Cl)c24)C3)C[C@@H]1CC#N (some centres unmarked) [Example 189]
0.0001 to 1	C=C(F)C(=O)N1CCN(c2nc(OCC3COCCO3)nc3c2CCN(c2cccc4ccc(F)c(Cl)c24)C3)C[C@@H]1CC#N (some centres unmarked) [Example 201]
0.0001 to 1	C=C(F)C(=O)N1CCN(c2nc(OCC34CCCN3CC3(CC3)C4)nc3c2CCN(c2cccc4ccc(F)c(Cl)c24)C3)C[C@@H]1CC#N (some centres unmarked) [Example 184]
